# Assays:
# Escherichia coli [1] = experiment: Antimicrobial activity against Escherichia coli ATCC 25922 assessed as increase in absorbance incubated for 20 to 22 hrs; format: functional; conditions: time 20-22 hrs
# Enterococcus faecalis = experiment: Antimicrobial activity against Enterococcus faecalis 29212 assessed as increase in absorbance incubated for 20 to 22 hrs; format: functional; conditions: time 20-22 hrs
# [2] = Cytotoxicity against porcine IPEC-J2 cells assessed as cell death measured after 18 to 24 hrs by MTT assay; format: functional; conditions: Sus scrofa, time 18-24 hrs
# Pseudomonas aeruginosa = experiment: Antimicrobial activity against Pseudomonas aeruginosa 27853 assessed as increase in absorbance incubated for 20 to 22 hrs; format: functional; conditions: time 20-22 hrs
# [3] = Hemolytic activity in healthy human RBC assessed as hemolysis incubated for 1 hr by microplate reader; format: toxicity, cell-based; conditions: erythrocyte
# Staphylococcus aureus [4] = experiment: Antimicrobial activity against Staphylococcus aureus 29213 assessed as increase in absorbance incubated for 20 to 22 hrs; format: functional; conditions: time 20-22 hrs
# Salmonella typhimurium [5] = experiment: Antimicrobial activity against Salmonella typhimurium 14028 assessed as increase in absorbance incubated for 20 to 22 hrs; format: functional, Salmonella enterica subsp. enterica serovar Typhimurium; conditions: Salmonella enterica, time 20-22 hrs
# Salmonella typhimurium [6] = experiment: Antimicrobial activity against Salmonella typhimurium 7731 assessed as increase in absorbance incubated for 20 to 22 hrs; format: functional, Salmonella enterica subsp. enterica serovar Typhimurium; conditions: Salmonella enterica, time 20-22 hrs
# RAW264.7 = experiment: Cytotoxicity against mouse RAW264.7 cells assessed as cell death measured after 18 to 24 hrs by MTT assay; format: functional; conditions: time 18-24 hrs
# HEK-293T = experiment: Cytotoxicity against human HEK293T cells assessed as cell death measured after 18 to 24 hrs by MTT assay; format: functional; conditions: time 18-24 hrs
# Staphylococcus aureus [7] = experiment: Antimicrobial activity against methicillin-resistant Staphylococcus aureus 43300 assessed as increase in absorbance incubated for 20 to 22 hrs; format: functional; conditions: time 20-22 hrs
# [8] = system: Staphylococcus epidermidis; experiment: Antimicrobial activity against Staphylococcus epidermidis 12228 assessed as increase in absorbance incubated for 20 to 22 hrs; format: functional; conditions: time 20-22 hrs
# Escherichia coli [9] = experiment: Antimicrobial activity against Escherichia coli K88 assessed as increase in absorbance incubated for 20 to 22 hrs; format: functional; conditions: time 20-22 hrs
# Staphylococcus aureus [10] = experiment: Antimicrobial activity against Staphylococcus aureus 25923 assessed as increase in absorbance incubated for 20 to 22 hrs; format: functional; conditions: time 20-22 hrs
# Escherichia coli [11] = experiment: Antimicrobial activity against Escherichia coli K99 assessed as increase in absorbance incubated for 20 to 22 hrs; format: functional; conditions: time 20-22 hrs
SMILES,MIC (Escherichia coli [1]),MIC (Enterococcus faecalis),IC10 [2],MIC (Pseudomonas aeruginosa),HC10 [3],MIC (Staphylococcus aureus [4]),MIC (Salmonella typhimurium [5]),MIC (Salmonella typhimurium [6]),IC10 (RAW264.7),IC10 (HEK-293T),MIC (Staphylococcus aureus [7]),MIC [8],MIC (Escherichia coli [9]),MIC (Staphylococcus aureus [10]),MIC (Escherichia coli [11])
CCCCCCCCCCCC(=O)NCCCC[C@H](N)C(=O)NCC(=O)NCC(=O)NCC(=O)N[C@H](CCCNC(=N)N)C(=O)N[C@@H](CCCNC(=N)N)C(=O)N[C@@H](CCCNC(=N)N)C(=O)N1CCC[C@H]1C(=O)N[C@@H](CSSC[C@H](NC(=O)[C@@H]1CCCN1C(=O)[C@H](CCCNC(=N)N)NC(=O)[C@H](CCCNC(=N)N)NC(=O)[C@@H](CCCNC(=N)N)NC(=O)CNC(=O)CNC(=O)CNC(=O)[C@@H](N)CCCCNC(=O)CCCCCCCCCCC)C(=O)O)C(=O)O,8 µM,32 µM,32 µM,8 µM,64 µM,32 µM,32 µM,32 µM,64 µM,128 µM,32 µM,32 µM,16 µM,32 µM,32 µM
CCCCCCCC(=O)NCCCC[C@H](N)C(=O)NCC(=O)NCC(=O)NCC(=O)N[C@H](CCCNC(=N)N)C(=O)N[C@@H](CCCNC(=N)N)C(=O)N[C@@H](CCCNC(=N)N)C(=O)N1CCC[C@H]1C(=O)N[C@@H](CS)C(=O)O,32 µM,128 µM,256 µM,8 µM,256 µM,128 µM,64 µM,32 µM,256 µM,256 µM,128 µM,128 µM,32 µM,128 µM,32 µM
CCCCCCCCCC(=O)NCCCC[C@H](N)C(=O)NCC(=O)NCC(=O)NCC(=O)N[C@H](CCCNC(=N)N)C(=O)N[C@@H](CCCNC(=N)N)C(=O)N[C@@H](CCCNC(=N)N)C(=O)N1CCC[C@H]1C(=O)N[C@@H](CS)C(=O)O,16 µM,32 µM,256 µM,8 µM,256 µM,32 µM,16 µM,32 µM,256 µM,256 µM,32 µM,32 µM,16 µM,32 µM,16 µM
CCCCCCCC(=O)NCCCC[C@H](NC(=O)[C@@H](N)CS)C(=O)NCC(=O)NCC(=O)NCC(=O)N[C@H](CCCNC(=N)N)C(=O)N[C@@H](CCCNC(=N)N)C(=O)N[C@@H](CCCNC(=N)N)C(=O)N1CCC[C@H]1C(=O)O,64 µM,128 µM,256 µM,64 µM,256 µM,128 µM,128 µM,128 µM,256 µM,256 µM,128 µM,128 µM,64 µM,128 µM,128 µM
CCCCCCCC(=O)NCCCC[C@H](N)C(=O)NCC(=O)NCC(=O)NCC(=O)N[C@H](CCCNC(=N)N)C(=O)N[C@@H](CCCNC(=N)N)C(=O)N[C@@H](CCCNC(=N)N)C(=O)N1CCC[C@H]1C(=O)N[C@@H](CSSC[C@H](NC(=O)[C@@H]1CCCN1C(=O)[C@H](CCCNC(=N)N)NC(=O)[C@H](CCCNC(=N)N)NC(=O)[C@@H](CCCNC(=N)N)NC(=O)CNC(=O)CNC(=O)CNC(=O)[C@@H](N)CCCCNC(=O)CCCCCCC)C(=O)O)C(=O)O,2 µM,64 µM,256 µM,4 µM,256 µM,32 µM,4 µM,4 µM,256 µM,256 µM,32 µM,64 µM,4 µM,32 µM,4 µM
CCCCCCCCCC(=O)NCCCC[C@H](NC(=O)[C@@H](N)CS)C(=O)NCC(=O)NCC(=O)NCC(=O)N[C@H](CCCNC(=N)N)C(=O)N[C@@H](CCCNC(=N)N)C(=O)N[C@@H](CCCNC(=N)N)C(=O)N1CCC[C@H]1C(=O)O,32 µM,64 µM,256 µM,16 µM,256 µM,64 µM,32 µM,64 µM,256 µM,256 µM,64 µM,128 µM,32 µM,64 µM,32 µM
CCCCCCCCCCCC(=O)NCCCC[C@H](NC(=O)[C@@H](N)CSSC[C@H](N)C(=O)N[C@@H](CCCCNC(=O)CCCCCCCCCCC)C(=O)NCC(=O)NCC(=O)NCC(=O)N[C@H](CCCNC(=N)N)C(=O)N[C@@H](CCCNC(=N)N)C(=O)N[C@@H](CCCNC(=N)N)C(=O)N1CCC[C@H]1C(=O)O)C(=O)NCC(=O)NCC(=O)NCC(=O)N[C@H](CCCNC(=N)N)C(=O)N[C@@H](CCCNC(=N)N)C(=O)N[C@@H](CCCNC(=N)N)C(=O)N1CCC[C@H]1C(=O)O,4 µM,16 µM,128 µM,8 µM,128 µM,16 µM,16 µM,32 µM,128 µM,128 µM,18 µM,16 µM,16 µM,32 µM,32 µM
CCCCCCCC(=O)NCCCC[C@H](NC(=O)[C@@H](N)CSSC[C@H](N)C(=O)N[C@@H](CCCCNC(=O)CCCCCCC)C(=O)NCC(=O)NCC(=O)NCC(=O)N[C@H](CCCNC(=N)N)C(=O)N[C@@H](CCCNC(=N)N)C(=O)N[C@@H](CCCNC(=N)N)C(=O)N1CCC[C@H]1C(=O)O)C(=O)NCC(=O)NCC(=O)NCC(=O)N[C@H](CCCNC(=N)N)C(=O)N[C@@H](CCCNC(=N)N)C(=O)N[C@@H](CCCNC(=N)N)C(=O)N1CCC[C@H]1C(=O)O,8 µM,128 µM,256 µM,16 µM,256 µM,128 µM,16 µM,16 µM,256 µM,256 µM,128 µM,128 µM,8 µM,128 µM,8 µM
CCCCCCCCCCCC(=O)NCCCC[C@H](NC(=O)[C@@H](N)CS)C(=O)NCC(=O)NCC(=O)NCC(=O)N[C@H](CCCNC(=N)N)C(=O)N[C@@H](CCCNC(=N)N)C(=O)N[C@@H](CCCNC(=N)N)C(=O)N1CCC[C@H]1C(=O)O,32 µM,64 µM,256 µM,32 µM,128 µM,64 µM,128 µM,64 µM,128 µM,128 µM,64 µM,64 µM,32 µM,128 µM,64 µM
CCCCCCCCCCCC(=O)NCCCC[C@H](N)C(=O)NCC(=O)NCC(=O)NCC(=O)N[C@H](CCCNC(=N)N)C(=O)N[C@@H](CCCNC(=N)N)C(=O)N[C@@H](CCCNC(=N)N)C(=O)N1CCC[C@H]1C(=O)N[C@@H](CS)C(=O)O,16 µM,32 µM,32 µM,16 µM,64 µM,64 µM,64 µM,32 µM,64 µM,128 µM,64 µM,64 µM,32 µM,64 µM,32 µM
